{"source": "paper doi:10.1101/2025.07.28.666932v2", "about": "“Mechanism-Guided Engineering of Fluorinase Unlocks Efficient Nucleophilic Biofluorination” (biorxiv, 2026)", "target": "T1, fluorinase FlA1 (Streptomyces sp., UniProt W0W999)", "T1 construct": "recombinant, overexpressed in Escherichia coli, purified", "T1 sequence (W0W999 whole entry)": "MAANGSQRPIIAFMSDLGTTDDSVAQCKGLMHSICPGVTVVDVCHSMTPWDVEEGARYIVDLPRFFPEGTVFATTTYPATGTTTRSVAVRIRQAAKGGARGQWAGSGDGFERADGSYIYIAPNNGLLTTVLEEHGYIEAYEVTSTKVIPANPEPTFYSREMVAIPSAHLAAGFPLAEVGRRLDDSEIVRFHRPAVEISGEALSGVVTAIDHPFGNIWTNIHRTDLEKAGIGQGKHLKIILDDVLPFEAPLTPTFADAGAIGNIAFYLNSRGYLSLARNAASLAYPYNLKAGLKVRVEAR", "assay": "global numerical fit of steady-state kinetics and mass photometry", "format": "biochemical", "conditions": "75 mM KF, 50 mM HEPES, pH 7.8, 37 °C; competitive with fluoride; dissociation of the unproductive E·SAM complex", "data": [{"compound": "C[S+](CC[C@H](N)C(=O)O)C[C@H]1O[C@@H](n2cnc3c(N)ncnc32)[C@H](O)[C@@H]1O", "note": "(stereo partly shown) [SAM]", "values": [{"measurement": "Ki,SAM", "value": "1160 ± 80", "unit": "nM"}]}]}
